# In patent publication US11319303B2 (WIGEN BIOMEDICINE TECHNOLOGY (SHANGHAI) CO., LTD., priority 2017, dated 2022):
# Where a name gives a salt, the structure may show the parent alone.
# Target: LC3B (Homo sapiens, UniProt Q9GZQ8)
# Assay: Fluorescence Polarization (FP) Assay: displacement of FITC-labeled peptide from GST-LC3B
# Format: binding
# Details: Fluorescence Polarization assay; GST-LC3B 180 nM, FITC-labeled peptide 18 nM, 25° C.; read-out: IC50
# Experimental: The compounds of the present invention for regulating the autophagy-related protein LC3B were tested by Fluorescence Polarization (FP) Assay.
# Fluorescence Polarization (FP) Assay Test
smiles,measurement,value
"O=C1CC(c2ccco2)CC(=O)C1=CNCCN1CCN(CCO)CC1 (centres unmarked) [Compound 43, 5-(furan-2-yl)-2-(((2-(4-(2-hydroxyethyl)piperazin-1-yl)ethyl)amino)methylene) cyclohexane-1,3-dione]",IC50,3 to 15 µM
"COCCOc1ccc(C2CC(=O)C(=CNCCN3CCN(CCO)CC3)C(=O)C2)cc1 (centres unmarked) [Compound 44, 2-(((2-(4-(2-hydroxyethyl)piperazin-1-yl)ethyl)amino)methylene)-5-(4-(2-methoxyethoxy)phenyl) cyclohexane-1,3-dione]",IC50,15 to 100 µM
"COCCOCCOc1ccc(C2CC(=O)C(=CNCCN3CCN(CCO)CC3)C(=O)C2)cc1 (centres unmarked) [Compound 45, 2-(((2-(4-(2-hydroxyethyl)piperazin-1-yl)ethyl)amino)methylene)-5-(4-(2-(2-methoxyethoxy)ethoxy)phenyl) cyclohexane-1,3-dione]",IC50,15 to 100 µM
"COc1ccc(C2CC(=O)C(=CNCCN3CCN(CCO)CC3)C(=O)C2)c(OC)c1 (centres unmarked) [Compound 46, 5-(2,4-dimethoxyphenyl)-2-(((2-(4-(2-hydroxyethyl)piperazin-1-yl)ethyl)amino)methylene) cyclohexane-1,3-dione]",IC50,< 3 µM
"O=C1CC(c2ccc(C(F)(F)F)cc2)CC(=O)C1=CNCCN1CCN(CCO)CC1 (centres unmarked) [Compound 48, 2-(((2-(4-(2-hydroxyethyl)piperazin-1-yl)ethyl)amino)methylene)-5-(4-(trifluoromethyl)phenyl) cyclohexane-1,3-dione]",IC50,< 3 µM
"O=C1CC(c2ccc(F)cc2)CC(=O)C1=CNCCN1CCN(CCO)CC1 (centres unmarked) [Compound 49, 5-(4-fluorophenyl)-2-(((2-(4-(2-hydroxyethyl)piperazin-1-yl)ethyl)amino)methylene) cyclohexane-1,3-dione]",IC50,< 3 µM
"O=C1CC(c2ccc(OC(F)(F)F)cc2)CC(=O)C1=CNCCN1CCN(CCO)CC1 (centres unmarked) [Compound 50, 2-(((2-(4-(2-hydroxyethyl)piperazin-1-yl)ethyl)amino)methylene)-5-(4-(trifluoromethoxy)phenyl) cyclohexane-1,3-dione]",IC50,< 3 µM
"N#Cc1ccc(C2CC(=O)C(=CNCCN3CCN(CCO)CC3)C(=O)C2)cc1 (centres unmarked) [Compound 51, 2-(((2-(4-(2-hydroxyethyl)piperazin-1-yl)ethyl)amino)methylene)-5-(4-(cyano)phenyl) cyclohexane-1,3-dione]",IC50,15 to 100 µM
"O=C1CC(c2ccccn2)CC(=O)C1=CNCCN1CCN(CCO)CC1 (centres unmarked) [Compound 53, 2-(((2-(4-(2-hydroxyethyl)piperazin-1-yl)ethyl)amino)methylene)-5-(pyridin-2-yl) cyclohexane-1,3-dione]",IC50,15 to 100 µM
"COc1ccc(C2CC(=O)C(=CNCCN3CCN(CCO)CC3)C(=O)C2)c2ccccc12 (centres unmarked) [Compound 54, 2-(((2-(4-(2-hydroxyethyl)piperazin-1-yl)ethyl)amino)methylene)-5-(4-methoxy-naphthalen-1-yl)cyclohexane-1,3-dione]",IC50,< 3 µM
"Cn1cccc1C1CC(=O)C(=CNCCN2CCN(CCO)CC2)C(=O)C1 (centres unmarked) [Compound 55, 2-(((2-(4-(2-hydroxyethyl)piperazin-1-yl)ethyl)amino)methylene)-5-(1-methyl-1H-pyrrol-2-yl)cyclohexane-1,3-dione]",IC50,15 to 100 µM
"O=C1CC(c2cccc3c2OCCO3)CC(=O)C1=CNCCN1CCN(CCO)CC1 (centres unmarked) [Compound 56, 5-(2,3-dihydrobenzo [b][1,4]dioxin-5-yl)-2-(((2-(4-(2-hydroxyethyl)piperazin-1-yl)ethyl)amino)methylene) cyclohexane-1,3-dione]",IC50,3 to 15 µM
"O=C1CC(c2nccs2)CC(=O)C1=CNCCN1CCN(CCO)CC1 (centres unmarked) [Compound 57, 2-(((2-(4-(2-hydroxyethyl)piperazin-1-yl)ethyl)amino)methylene)-5-(thiazol-2-yl) cyclohexane-1,3-dione]",IC50,15 to 100 µM
"O=C1CC(c2c[nH]cn2)CC(=O)C1=CNCCN1CCN(CCO)CC1 (centres unmarked) [Compound 59, 2-(((2-(4-(2-hydroxyethyl)piperazin-1-yl)ethyl)amino)methylene)-5-(1H-imidazol-4-yl) cyclohexane-1,3-dione]",IC50,100 to 1000 µM
"O=C1CC(c2c3ccccc3cc3ccccc23)CC(=O)C1=CNCCN1CCN(CCO)CC1 (centres unmarked) [Compound 61, 5-(anthracen-9-yl)-2-(((2-(4-(2-hydroxyethyl)piperazin-1-yl)ethyl)amino)methylene) cyclohexane-1,3-dione]",IC50,< 3 µM
"O=C1CC(c2ccnc3ccccc23)CC(=O)C1=CNCCN1CCN(CCO)CC1 (centres unmarked) [Compound 62, 2-(((2-(4-(2-hydroxyethyl)piperazin-1-yl)ethyl)amino)methylene)-5-(quinolin-4-yl) cyclohexane-1,3-dione]",IC50,3 to 15 µM
"CCC(CC)C1CC(=O)C(=CNCCN2CCN(CCO)CC2)C(=O)C1 (centres unmarked) [Compound 63, 2-(((2-(4-(2-hydroxyethyl)piperazin-1-yl)ethyl)amino)methylene)-5-(pentan-3-yl) cyclohexane-1,3-dione]",IC50,15 to 100 µM
"O=C1CC(C2CCOCC2)CC(=O)C1=CNCCN1CCN(CCO)CC1 (centres unmarked) [Compound 64, 2-(((2-(4-(2-hydroxyethyl)piperazin-1-yl)ethyl)amino)methylene)-5-(tetrahydro-2H-pyran-4-yl)cyclohexane-1,3-dione]",IC50,100 to 1000 µM
"CS(=O)(=O)c1ccc(C2CC(=O)C(=CNCCN3CCN(CCO)CC3)C(=O)C2)cc1 (centres unmarked) [Compound 65, 2-(((2-(4-(2-hydroxyethyl)piperazin-1-yl)ethyl)amino)methylene)-5-(4-(methylsulfonyl)phenyl) cyclohexane-1,3-dione]",IC50,100 to 1000 µM
"O=C1CC(c2csc3ccccc23)CC(=O)C1=CNCCN1CCN(CCO)CC1 (centres unmarked) [Compound 66, 5-(benzo[b]thiophen-3-yl)-2-(((2-(4-(2-hydroxyethyl)piperazin-1-yl)ethyl)amino)methylene) cyclohexane-1,3-dione]",IC50,< 3 µM
"O=C1CC(C2CC2)CC(=O)C1=CNCCN1CCN(CCO)CC1 (centres unmarked) [Compound 67, 5-cyclopropyl-2-(((2-(4-(2-hydroxyethyl)piperazin-1-yl)ethyl)amino)methylene) cyclohexane-1,3-dione]",IC50,100 to 1000 µM
"O=C1CC(c2cccc3[nH]ccc23)CC(=O)C1=CNCCN1CCN(CCO)CC1 (centres unmarked) [Compound 68, 2-(((2-(4-(2-hydroxyethyl)piperazin-1-yl)ethyl)amino)methylene)-5-(1H-indol-4-yl) cyclohexane-1,3-dione]",IC50,< 3 µM
"CC(c1ccccc1)C1CC(=O)C(=CNCCN2CCN(CCO)CC2)C(=O)C1 (centres unmarked) [Compound 69, 2-(((2-(4-(2-hydroxyethyl)piperazin-1-yl)ethyl)amino)methylene)-5-(1-phenylethyl) cyclohexane-1,3-dione]",IC50,15 to 100 µM
"O=C1CC(C2CCNCC2)CC(=O)C1=CNCCN1CCN(CCO)CC1 (centres unmarked) [Compound 70, 2-(((2-(4-(2-hydroxyethyl)piperazin-1-yl)ethyl)amino)methylene)-5-(piperidin-4-yl) cyclohexane-1,3-dione HCl salt]",IC50,100 to 1000 µM
"O=C1CC(c2ccc(OCCOc3ccncc3)cc2)CC(=O)C1=CNCCN1CCN(CCO)CC1 (centres unmarked) [Compound 71, 2-(((2-(4-(2-hydroxyethyl)piperazin-1-yl)ethyl)amino)methylene)-5-(4-(2-(pyridin-4-yloxy)ethoxy)phenyl) cyclohexane-1,3-dione]",IC50,15 to 100 µM
"O=C1CC(c2ccc(-c3ccncc3)s2)CC(=O)C1=CNCCN1CCN(CCO)CC1 (centres unmarked) [Compound 72, 2-(((2-(4-(2-hydroxyethyl)piperazin-1-yl)ethyl)amino)methylene)-5-(5-(pyridin-4-yl)thiophen-2-yl)cyclohexane-1,3-dione]",IC50,< 3 µM
"O=C1CC(c2ccc(-c3ccncc3)cc2)CC(=O)C1=CNCCN1CCN(CCO)CC1 (centres unmarked) [Compound 73, 2-(((2-(4-(2-hydroxyethyl)piperazin-1-yl)ethyl)amino)methylene)-5-(4-(pyridin-4-yl)phenyl) cyclohexane-1,3-dione]",IC50,< 3 µM
"CN(C)C=Nc1nc2c(C3CC(=O)C(=CNCCN4CCN(CCO)CC4)C(=O)C3)cccc2s1 (centres unmarked) [Compound 74, N′-(4-(4-(((2-(4-(2-hydroxyethyl)piperazin-1-yl)ethyl)amino)methylene)-3,5-dioxocyclohexyl)benzo[d]thiazol-2-yl)-N,N-dimethyl-formimidamide]",IC50,< 3 µM
"O=C1CC(c2cccc(Oc3ccncc3)c2)CC(=O)C1=CNCCN1CCN(CCO)CC1 (centres unmarked) [Compound 75, 2-(((2-(4-(2-hydroxyethyl)piperazin-1-yl)ethyl)amino)methylene)-5-(3-(pyridin-4-yloxy)phenyl) cyclohexane-1,3-dione]",IC50,3 to 15 µM
"CCOc1ncnc2c1ncn2-c1ccc(C2CC(=O)C(=CNCCN3CCN(CCO)CC3)C(=O)C2)cc1 (centres unmarked) [Compound 76, 5-(4-(6-ethoxy-9H-purin-9-yl)phenyl)-2-(((2-(4-(2-hydroxyethyl)piperazin-1-yl)ethyl)amino)methylene) cyclohexane-1,3-dione]",IC50,15 to 100 µM
"O=C1CC(c2ccc(C(=O)N3CCOCC3)cc2)CC(=O)C1=CNCCN1CCN(CCO)CC1 (centres unmarked) [Compound 77, 2-(((2-(4-(2-hydroxyethyl)piperazin-1-yl)ethyl)amino)methylene)-5-(4-(morpholine-4-carbonyl)phenyl) cyclohexane-1,3-dione]",IC50,15 to 100 µM
O=C1CC([C@]23C[C@H]4C[C@H](C[C@H](C4)C2)C3)CC(=O)C1=CNCCN1CCN(CCO)CC1 (some centres unmarked) [Compound 78],IC50,15 to 100 µM
"CN1CCN(c2ccc(C3CC(=O)C(=CNCCN4CCN(CCO)CC4)C(=O)C3)cn2)CC1 (centres unmarked) [Compound 79, 2-(((2-(4-(2-hydroxyethyl)piperazin-1-yl)ethyl)amino)methylene)-5-(6-(4-methylpiperazin-1-yl)pyridin-3-yl) cyclohexane-1,3-dione]",IC50,100 to 1000 µM
"COCCOc1cc(C2CC(=O)C(=CNCCN3CCN(CCO)CC3)C(=O)C2)ccc1OC (centres unmarked) [Compound 80, 2-(((2-(4-(2-hydroxyethyl)piperazin-1-yl)ethyl)amino)methylene)-5-(4-methoxy-3-(2-methoxyethoxy)phenyl) cyclohexane-1,3-dione]",IC50,15 to 100 µM
"O=C1CC(c2ccc(-c3nccs3)cc2)CC(=O)C1=CNCCN1CCN(CCO)CC1 (centres unmarked) [Compound 81, 2-(((2-(4-(2-hydroxyethyl)piperazin-1-yl)ethyl)amino)methylene)-5-(4-(thiazol-2-yl)phenyl) cyclohexane-1,3-dione]",IC50,15 to 100 µM
